pEC50: −log10 of the molar value.
Columns and labels:
[1] = molecular target: T1, DDB1-CDK12/Cyclin K ternary complex (Homo sapiens, UniProt Q16531+Q9NYV4); assay: NanoBRET fold-change assay (HaloTag_CDK12 / NanoLuc_DDB1 in HEK293T); assay type: cell-based; conditions: 10 μM compound, 10 minutes
T1 construct: expressed in transfected cells; host or cells: HEK293T wildtype cells, transient PEI transfection
Outline: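 HEK293T cells transiently co-transfected with HaloTag_CDK12 and NanoLuc_DDB1, labelled overnight with 100 nM HaloTag 618 ligand (DMSO no-ligand control), then treated with compound at 10 μM final for 10 min at room temperature. BRET read as 460 nm donor and 647 nm acceptor emission after Nano-Glo substrate; reported as fold change.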

[2] = molecular target: T1, DDB1-CDK12/Cyclin K ternary complex; assay: NanoBRET EC50 assay (HaloTag_CDK12 / NanoLuc_DDB1 in HEK293T); assay type: cell-based; conditions: for NanoBRET EC50 Activity Class / pEC50: 10-point titration from 20 μM, HEK293T; for pEC50: read-out: NanoBRET EC50 Activity Class
Description: This assay measures the interaction/recruitment of CDK12/Cyclin K to DDB1, mechanistically validating the molecular glue pharmacology.
HEK293T wildtype cells are seeded 800 k cells/well (DMEM+10% FBS+1% PS) in a 6-well plate and allowed to attach for ˜7 hours followed by a transient transfection of 1.5 μg HaloTag_CDK12 Plasmid [Table 1] and 0.15 μg NanoLuc_DDB1 plasmid [Table 1] per well using PEI. Cells are incubated at 37° C., 5% CO2, harvested after 24 hours and resuspended in assay media (Opti-MEM Reduced serum media, no phenol red, 4% FBS, 1% PS). Cells are adjusted to 2.3×10^5 cells/ml and treated with HaloTag 618 Ligand at 100 nM or DMSO. 8000 cells are seeded per well in triplicates per compound in a white-walled 384-well plate, one negative control treated with DMSO instead of HaloTag 618 Ligand is seeded in triplicates and the 384-well plate is incubated at 37° C., 5% CO2 overnight. Compound stock solutions are prepared in Opti-MEM−/− (Opti-MEM I Reduced serum media, no phenol red) at 8× and used to treat the cells at a final concentration of 1× at 10 μM. Cells and compounds are incubated for 10 minutes at room temperature followed by addition of NanoBRET Nano-Glo substrate following manufacturer's protocols. The plate is shaken for 30 sec followed by immediate measurement of donor emission (NanoBRET Blue at 460 nm) and acceptor emission (BRET Deep Red at 647 nm) for 0.5 s.
The assay setup is identical to “NanoBRET fold change experimental setup”. Instead of treating cells in […] with 10 μM compound, a 10-point titration starting at 20 μM is performed with a dilution factor of 1:4, covering α range of 20000 nM-0.076 nM.

[3] = tested on: KBM7 cells (wild-type); assay: KBM7 CTG EC50 assay (UBE2M wild-type); assay type: cell-based, human; conditions: for pEC50: Homo sapiens, KBM-7, 72 h incubation, CellTiter-Glo, read-out: KBM7 CTG EC50 (UBE2M wild-type) Activity Class; for Ratio UBE2M WT to KO: ratio of anti-proliferative activity in KBM7 wild-type versus UBE2M knock-out cells (fold)
Outline: (§1)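 Wild-type KBM7 cells, or KBM7 cells with a hypomorphic UBE2M mutation that impairs Cullin-RING ligase activity, were treated for 72 h with compounds in a 10-point, 1:4 titration (0 to 20 μM). Viability was read by CellTiter-Glo 2.0 luminescence.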

[4] = tested on: KBM7 cells harboring a hypomorphic UBE2M mutation; assay: KBM7 CTG EC50 assay (UBE2M knock-out); assay type: cell-based; conditions: Homo sapiens, KBM-7; 72 h incubation, CellTiter-Glo; read-out: KBM7 CTG EC50 (UBE2M knock-out) Activity Class
Outline: as §1

[5] = tested on: CCNK; assay: NanoLuc-CCNK degradation assay (HEK293T_Nluc_CCNK-tagged cells); assay type: cell-based; conditions: for DC50 / NanoLuc-CCNK degradation DC50 Activity Class: 4 h incubation, HEK293T_Nluc_CCNK-tagged cells; for DC50: read-out: NanoLuc-CCNK degradation DC50 Activity Class
Outline: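 HEK293T cells with nanoluciferase knocked in at the N-terminus of endogenous CCNK (CRISPR) exposed to a 10-point titration (0 to 10 μM, 1:4) in Opti-MEM I + 4% FBS for 4 h. Nano-Glo substrate then added and luminescence read as a measure of Cyclin K abundance.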

T1 sequence (Q9NYV4 whole entry): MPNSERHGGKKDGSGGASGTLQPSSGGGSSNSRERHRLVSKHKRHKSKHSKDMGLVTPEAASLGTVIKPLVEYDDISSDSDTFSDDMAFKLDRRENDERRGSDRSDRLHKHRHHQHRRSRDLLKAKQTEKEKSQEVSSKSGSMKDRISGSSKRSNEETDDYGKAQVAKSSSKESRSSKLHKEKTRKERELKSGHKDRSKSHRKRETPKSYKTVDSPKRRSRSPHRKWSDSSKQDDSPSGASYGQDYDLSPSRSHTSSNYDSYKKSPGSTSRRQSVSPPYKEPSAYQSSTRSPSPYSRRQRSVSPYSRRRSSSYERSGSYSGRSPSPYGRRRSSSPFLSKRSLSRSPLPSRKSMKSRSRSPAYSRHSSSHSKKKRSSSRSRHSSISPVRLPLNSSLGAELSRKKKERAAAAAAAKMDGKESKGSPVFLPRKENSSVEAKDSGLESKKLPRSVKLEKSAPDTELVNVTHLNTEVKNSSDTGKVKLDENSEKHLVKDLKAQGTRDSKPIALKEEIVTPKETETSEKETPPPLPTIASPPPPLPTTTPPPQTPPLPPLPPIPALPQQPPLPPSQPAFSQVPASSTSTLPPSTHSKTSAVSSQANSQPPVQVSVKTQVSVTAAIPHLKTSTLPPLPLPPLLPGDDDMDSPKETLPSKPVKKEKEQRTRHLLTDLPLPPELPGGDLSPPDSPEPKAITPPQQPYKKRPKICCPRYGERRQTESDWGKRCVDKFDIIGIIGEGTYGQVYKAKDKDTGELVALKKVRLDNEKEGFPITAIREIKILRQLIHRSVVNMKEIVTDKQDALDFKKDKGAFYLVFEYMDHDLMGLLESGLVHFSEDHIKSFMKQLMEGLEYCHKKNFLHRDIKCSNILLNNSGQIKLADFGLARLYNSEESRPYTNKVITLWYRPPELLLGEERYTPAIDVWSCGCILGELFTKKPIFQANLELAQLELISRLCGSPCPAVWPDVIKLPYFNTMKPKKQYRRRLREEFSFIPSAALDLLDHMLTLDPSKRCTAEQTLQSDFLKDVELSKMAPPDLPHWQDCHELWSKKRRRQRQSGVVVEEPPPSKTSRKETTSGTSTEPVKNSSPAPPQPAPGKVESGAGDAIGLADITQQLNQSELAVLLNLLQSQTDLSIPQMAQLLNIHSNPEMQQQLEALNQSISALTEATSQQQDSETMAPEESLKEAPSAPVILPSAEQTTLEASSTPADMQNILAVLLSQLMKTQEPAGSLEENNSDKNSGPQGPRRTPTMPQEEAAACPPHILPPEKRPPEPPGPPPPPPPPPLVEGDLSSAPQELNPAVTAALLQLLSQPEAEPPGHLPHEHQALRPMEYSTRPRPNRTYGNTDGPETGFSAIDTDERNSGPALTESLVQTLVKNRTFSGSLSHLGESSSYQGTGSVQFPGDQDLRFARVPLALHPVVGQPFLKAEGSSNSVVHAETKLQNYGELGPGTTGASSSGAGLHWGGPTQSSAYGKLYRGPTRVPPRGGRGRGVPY
T1 sequence (Q16531 whole entry): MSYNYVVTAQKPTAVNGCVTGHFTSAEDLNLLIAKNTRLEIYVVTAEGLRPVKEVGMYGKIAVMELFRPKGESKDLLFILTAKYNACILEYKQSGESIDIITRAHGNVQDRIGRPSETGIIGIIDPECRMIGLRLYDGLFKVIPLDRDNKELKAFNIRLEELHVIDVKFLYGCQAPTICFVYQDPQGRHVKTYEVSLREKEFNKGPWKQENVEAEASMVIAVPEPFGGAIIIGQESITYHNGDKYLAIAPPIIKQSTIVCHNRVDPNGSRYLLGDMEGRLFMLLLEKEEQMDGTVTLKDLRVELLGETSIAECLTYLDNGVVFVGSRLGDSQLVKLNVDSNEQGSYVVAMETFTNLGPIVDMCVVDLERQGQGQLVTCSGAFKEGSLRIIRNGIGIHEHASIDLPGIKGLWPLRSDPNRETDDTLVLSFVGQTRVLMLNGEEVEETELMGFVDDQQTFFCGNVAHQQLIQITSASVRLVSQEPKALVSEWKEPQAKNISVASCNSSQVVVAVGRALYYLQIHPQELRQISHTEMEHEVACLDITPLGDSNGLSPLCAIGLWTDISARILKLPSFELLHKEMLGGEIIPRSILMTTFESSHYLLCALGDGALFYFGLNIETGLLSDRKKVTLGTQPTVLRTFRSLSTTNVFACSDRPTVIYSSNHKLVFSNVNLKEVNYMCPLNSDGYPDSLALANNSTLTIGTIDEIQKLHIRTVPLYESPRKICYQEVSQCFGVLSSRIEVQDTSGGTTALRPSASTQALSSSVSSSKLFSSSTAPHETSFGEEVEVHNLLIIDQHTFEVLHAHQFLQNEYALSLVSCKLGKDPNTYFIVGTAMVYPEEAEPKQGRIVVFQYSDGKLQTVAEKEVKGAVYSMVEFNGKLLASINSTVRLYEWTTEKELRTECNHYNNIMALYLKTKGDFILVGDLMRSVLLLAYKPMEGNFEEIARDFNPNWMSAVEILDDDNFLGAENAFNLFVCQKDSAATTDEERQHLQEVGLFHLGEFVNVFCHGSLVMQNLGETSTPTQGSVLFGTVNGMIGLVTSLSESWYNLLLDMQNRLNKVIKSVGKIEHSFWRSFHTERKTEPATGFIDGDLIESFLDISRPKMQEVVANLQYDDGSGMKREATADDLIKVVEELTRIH
T1 sequence (O75909 whole entry partner): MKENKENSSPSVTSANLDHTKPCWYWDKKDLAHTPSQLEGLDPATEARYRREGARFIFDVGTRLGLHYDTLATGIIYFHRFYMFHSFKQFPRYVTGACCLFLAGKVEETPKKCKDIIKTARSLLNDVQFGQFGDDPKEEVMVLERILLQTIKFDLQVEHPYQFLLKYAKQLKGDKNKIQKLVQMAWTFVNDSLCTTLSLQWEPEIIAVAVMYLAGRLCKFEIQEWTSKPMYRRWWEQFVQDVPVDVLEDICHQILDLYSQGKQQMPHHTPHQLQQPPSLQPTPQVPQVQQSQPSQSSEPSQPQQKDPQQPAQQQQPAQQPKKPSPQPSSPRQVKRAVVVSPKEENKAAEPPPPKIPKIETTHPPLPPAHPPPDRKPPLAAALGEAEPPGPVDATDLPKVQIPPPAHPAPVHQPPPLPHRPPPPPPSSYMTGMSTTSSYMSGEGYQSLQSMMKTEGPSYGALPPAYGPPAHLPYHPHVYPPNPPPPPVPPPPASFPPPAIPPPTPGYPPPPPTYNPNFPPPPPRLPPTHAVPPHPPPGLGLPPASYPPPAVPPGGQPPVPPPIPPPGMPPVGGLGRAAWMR

Row | SMILES | NanoBRET fold-change Activity Class [1] | NanoBRET EC50 Activity Class [2] | pEC50 [3] | Ratio UBE2M WT to KO [3] | pEC50 [4] | DC50 [5] | activity in NanoBRET assay (ternary complex formation), in words [2] | pEC50 [2] | activity in KBM7 cytotoxicity assay, in words ([3]; KBM7) | activity in NanoLuc CCNK degradation assay, in words [5] | NanoLuc-CCNK degradation DC50 Activity Class [5]
1 | O=C(Nc1ncc(C(F)(F)F)s1)C1CC(=O)N(c2cccc(Cl)c2)C1 (stereo not drawn) [Example 3-19, 1-(3-chlorophenyl)-5-oxo-N-(5-(trifluoromethyl)thiazol-2-yl)pyrrolidine-3-carboxamide] | A (greater than 4-fold increase) | B (0.50 μM≤EC50≤0.25 μM) | ≥ 6.60 | 9.1 | ≥ 6.60 | ≤ 100 nM |  |  |  |  | 
2 | COc1cc(Br)cn2cc(CC(=O)Nc3ncc(C(F)(F)F)s3)nc12 [Example 3-9, 2-(6-bromo-8-methoxyimidazo[1,2-a]pyridin-2-yl)-N-(5-(trifluoromethyl)thiazol-2-yl)acetamide] | A (greater than 4-fold increase) |  | ≥ 6.60 | 2.0 | ≥ 6.60 | ≤ 100 nM | exceptional activity | ≥ 6.60 | extremely potent activity | exceptional activity | 
3 | O=C(Nc1ncc(C(F)(F)F)s1)C1CC(=O)N(c2cc(F)ccc2F)C1 (stereo not drawn) [Example 3-22, 1-(2,5-difluorophenyl)-5-oxo-N-(5-(trifluoromethyl)thiazol-2-yl)pyrrolidine-3-carboxamide] | B (3-4 fold increase) |  | ≥ 6.60 | >10 | < 5.00 | > 10000 nM |  | < 5.00 |  |  | 
4 | Cc1ccc(NC(=O)Cc2coc3c(C)c(C)ccc23)nc1 [Example 3-50, 2-(6,7-dimethylbenzofuran-3-yl)-N-(5-methylpyridin-2-yl)acetamide] | A (greater than 4-fold increase) |  | 6.30 to 6.60 | >10 | < 5.00 |  |  | ≥ 6.60 |  |  | D (10 μM≤DC50<1.0 μM)
5 | O=C(CCn1cnc2ccccc2c1=O)Nc1ncc(C(F)(F)F)s1 [Example 3-63, 3-(4-oxoquinazolin-3(4H)-yl)-N-(5-(trifluoromethyl)thiazol-2-yl)propanamide] | B (3-4 fold increase) |  | ≥ 6.60 | 13.9 | 5.00 to 6.00 |  |  | < 5.00 |  |  | B (0.50 μM≤DC50<0.10 μM)
6 | O=C(Cc1c[nH]c2ncccc12)Nc1ncc(C(F)(F)F)s1 [Example 3-38, 2-(1H-pyrrolo[2,3-b]pyridin-3-yl)-N-(5-(trifluoromethyl)thiazol-2-yl)acetamide] | B (3-4 fold increase) | C (1.0 μM≤EC50<0.50 μM) | 6.00 to 6.30 | >10 | < 5.00 | > 10000 nM |  |  |  |  | 
7 | O=C(Cc1cn2cc(F)ccc2n1)Nc1ccc(C2CC2)cn1 [Example 3-62, N-(5-cyclopropylpyridin-2-yl)-2-(6-fluoroimidazo[1,2-a]pyridin-2-yl)acetamide] | A (greater than 4-fold increase) |  | ≥ 6.60 | 50.8 | 6.30 to 6.60 | ≤ 100 nM |  | ≥ 6.60 |  |  | 
8 | Cc1cc(NC(=O)Cc2coc3c(C)c(C)ccc23)n[nH]1 [Example 3-44, 2-(6,7-dimethylbenzofuran-3-yl)-N-(5-methyl-1H-pyrazol-3-yl)acetamide] | A (greater than 4-fold increase) |  | ≥ 6.60 | 34.4 | 6.30 to 6.60 |  |  | ≥ 6.60 |  |  | B (0.50 μM≤DC50<0.10 μM)
9 | CC(C(=O)Nc1ncc(C(F)(F)F)s1)c1cnc2ccccc2c1 (stereo not drawn) [Example 3-35, 2-(quinolin-3-yl)-N-(5-(trifluoromethyl)thiazol-2-yl)propanamide] | A (greater than 4-fold increase) |  | ≥ 6.60 | 15.1 | ≥ 6.60 | ≤ 100 nM |  | ≥ 6.60 |  |  | 

— patent US20240132485A1, “HETEROCYCLIC CULLIN RING UBIQUITIN LIGASE COMPOUNDS AND USES THEREOF” (CEMM - FORSCHUNGSZENTRUM FÜR MOLEKULARE MEDIZIN GMBH, priority 2020, published 2024)
